A short description of data set [1]: Cell viability (cytotoxicity) assay, MTT. The format is cell-based. The conditions noted are these: mouse, Neuro2a neuroblastoma cells; Neuro2a cells, 24 h, MTT. On the procedure:
(§1) The neuroblastoma cell line Neuro2a was purchased from ATCC. Cells were cultured in DMEM medium containing 10% fetal bovine serum (Biolot, St. Petersburg, Russia) and 1% penicillin/streptomycin (Invitrogen, Carlsbad, CA, USA). Cells were incubated at 37 °C in a humidified atmosphere containing 5% (v/v) CO2.
(§2) Cell suspension (1 × 10^3 cells/well) was incubated with different concentration of compounds for 24 h. After that, cell viability was determined using the MTT (3-(4,5-dimethylthiazol-2-yl)-2,5- diphenyltetrazolium bromide) method, according to the manufacturer’s instructions (Sigma-Aldrich, St. Louis, MO, USA). The results were presented as percent of control data, and concentration required for 50% inhibition of cell viability (IC50) was calculated.

Data set [2] deals with neuroblastoma Neuro2a cells. As to the kind of experiment: Cell viability (cytotoxicity) assay, MTT. It counts as cell-based. The note with it: up to 100 µM. How it is done: as §1, §2
For data set [3] the following is noted: cited from earlier work.
Data set [4] concerns ROS formation in Neuro2a cells treated with 6-OHDA. As to the kind of experiment: ROS level analysis in 6-OHDA-treated cells. It counts as cell-based. The conditions noted are these: 10 µM; 6-OHDA 50 µM, 30 min. On the procedure:
(§3) Cell suspensions (1 × 10^3 cells/well) were incubated with compound solutions (10 µM) for 1 h. Then, 6-OHDA at a concentration of 50 µM was added in each well, and cells were incubated for 30 min. In other experiments, cells were incubated with PQ at a concentration of 500 µM for 30 min and 1 h. Cells incubated without 6-OHDA/PQ and compounds, and with 6-OHDA/PQ only, were used as positive and negative controls, respectively. To study ROS formation, 20 µL of 2,7-dichlorodihydrofluorescein diacetate solution (Molecular Probes, Eugene, OR, USA) was added to each well, such that the final concentration was […], and the microplate was incubated for an additional 10 min at 37 °C. The intensity of dichlorofluorescein fluorescence was measured with plate reader PHERAstar FS (BMG Labtech, Ortenberg, Germany) at λex = 485 nm, and λem = 518 nm. The data were processed by MARS Data Analysis v. 3.01R2 (BMG Labtech, Ortenberg, Germany). The results were presented as a percentage of positive control data.

The test system of data set [5] is ROS formation in Neuro2a cells treated with paraquat (PQ). As to the kind of experiment: ROS level analysis in PQ-treated cells. The format is cell-based. The conditions noted are these: added 1 h before PQ (500 µM). How it is done:
as §3, with “Cell suspensions (1 × 10^3 cells/well) were incubated with compound solutions (10 µM) for 1 h.” left out

The subject of data set [6] is Neuro2a cells treated with PQ. Description: Paraquat-induced in vitro model of Parkinson's disease, cell viability (MTT). It counts as cell-based. The conditions noted are these: added 1 h before PQ (500 µM). How it is done:
Neuroblastoma Neuro2a line cells (1 × 10^3 cells/well) were treated with compounds at concentrations of 1 and 10 µM for 1 h, and then 500 µM of paraquat (Sigma-Aldrich, St. Louis, MO, USA) was added to the neuroblastoma cell suspension. Cells incubated without paraquat and compounds, and with paraquat only, were used as positive and negative controls, respectively. The viability of cells was measured after 24 h using the MTT method. The results were presented as percent of positive control data.

Entries after “also recorded” stand apart in the source; their conditions may differ. Bounds are passed on as bounds.

One may read the IC50 as the concentration needed to halve the response being measured. On to `COc1cc(O)c(C)c2c1COC(C)C2` (stereo not drawn) [Compound 3, 8-methoxy-3,5-dimethylisochroman-6-ol], for which the IC50 at 24 h in data set [1] was more than 100 µM. Moreover, the “Cytotoxicity against Neuro2a cells” value in data set [2] was “not cytotoxic; also recorded: non-cytotoxic”. Moreover, the “DPPH Radical Scavenging % at 100 µM” value in data set [3] is 62.0 ± 4.6 [16] %. For the same compound, the “Reduction of ROS level in 6-OHDA-treated cells” value in data set [4] was 45%. Moreover, the “Effect on ROS formation in PQ-treated cells” value in data set [5] is listed as “reduced ROS formation”. Moreover, the “Effect on viability of PQ-treated cells” value in data set [6] is “did not exhibit any protective effect”.

Values taken from publication PMC6265791, “Neuroprotective Activity of Some Marine Fungal Metabolites in the 6-Hydroxydopamin- and Paraquat-Induced Parkinson’s Disease Models” (Marine Drugs, 2018).
